From patent publication US11123398B2, “Chemotherapeutic combinations of cationic antimicrobial peptides and chemotherapeutics” (LYTIX BIOPHARMA AS, priority 2014, dated 2021)
Non-standard residues stand in square brackets, D forms with d. Residues, ends and D or L forms follow the SMILES beside them. Bip = N[C@@H](Cc1ccc(-c2ccccc2)cc1)C(=O)O; Dip = N[C@H](C(=O)O)C(c1ccccc1)c1ccccc1

How the values were obtained:
spleen cells = details: cited from earlier work
A20 lymphoma = assay: LTX-315 with metronomic CY in A20 lymphoma model; format: in vivo, Balb/c mice; details: metronomic CY, single i.p. 2 mg on day 4
Procedure: Tumor cells were harvested, washed in RPMI-1640 and injected intradermally (i.d.) into the right side of the abdomen in Balb/c mice (5×10^6 A20 cells per mouse/50 μl RPMI-1640). When animals obtained palpable tumors (20-30 mm^2) animals were injected i.p. with a single dose of CY (day 4) dissolved in saline (2.0 mg CY/500 μl saline). […] Tumor size was measured using an electronic caliper and expressed as the area of an ellipse [(maximum dimension/2)×(minimum dimension/2)×π]. Animals were then euthanized when the product of the perpendicular tumor dimensions reached 130 mm^2 or when tumor ulceration developed.

IGROV-1/CDDP = assay: MTS cytotoxicity assay, IGROV-1/CDDP; format: cell-based, human; details: IC50 resistant / IC50 sensitive line; cisplatin resistance
Procedure: (§1) Tumor cells were plated in 96-well flat-bottom microtitration plates (Nunc, Dutscher, Brumath, France) and incubated at 37° C. for 24 hours before treatment in 190 μl of drug-free culture medium supplemented or not with 10% FBS for adherent or suspension growing cell lines, respectively.
(§2) The adherent cell lines were washed once with 200 μl FBS-free culture medium before treatment. Tumor cells were incubated for 4 hours with 10 concentrations of compounds in ¼ dilution step with a top dose of 400 μM (range 4×10^−4 to 4×10^−10 M), with 1% (final concentration) Triton X-100 as positive control and FBS-free culture medium as negative control. The cells (190 μl) were incubated in a 200 μl final volume of FBS-free culture medium containing test substances at 37° C. under 5% CO2.
(§3) Three independent experiments were performed, each concentration being tested in quadruplicate. Control cells were treated with vehicle alone. At the end of treatments, the cytotoxic activity was evaluated by a MTS assay (see § 3.3.).
(§4) Like MTT, MTS is bioreduced by cells into a formazan product that is directly soluble in culture medium without processing, unlike MTT.
(§5) At the end of the cells treatment, 40 μl of a 0.22 μm filtered freshly combined solution of MTS (20 ml at 2 mg/ml, Ref G1111, Batch 235897, Exp March 2009, Promega, Charbonnières, France) and PMS (1 ml at 0.92 mg/ml, Ref P9625, Batch 065K0961, Sigma) in Dulbecco's Phosphate Buffered Saline (DPBS, Ref 17-513Q, Batch 6MB0152, Cambrex), were added in each well. Culture plates were incubated for 2 h at 37° C. Absorbency (OD) were measured at 490 nm in each well using VICTOR^3™ 1420 multilabeled counter (Wallac, PerkinElmer, Courtaboeuf, France).
(§6) IC50: drug concentration to obtain a 50% inhibition of cell proliferation.
(§7) The dose-response curves were plotted using XLFit 3 (IDBS, United Kingdom). The IC50 determination values were calculated using the XLFit 3 software from semi-log curves. Individual IC50 determination values as well as mean and SD values were generated.
(§8) Resistance index was calculated using the following formula: […]
(§9) Resistance index was calculated for each compound for each couple of sensitive and resistant cell lines. Individual resistance index was calculated when IC50 values of both sensitive and corresponding resistant cell lines were determined within same experiment. In addition, resistance index was also calculated ratio of mean IC50 values obtained during three independent experiments.

HL-60/ADR = assay: MTS cytotoxicity assay, HL-60/ADR; format: cell-based, human; details: IC50 resistant / IC50 sensitive line; doxorubicin resistance
Procedure: as §1, §2, §3, §4, §5, §6, §7, §8, §9

T-47D cell line = format: cell-based, human; details: 4 h
Procedure: as §1, §2, §3, §4, §5, §6, §7

Hep G2 cell line = format: cell-based, human; details: 4 h
Procedure: as §1, §2, §3, §4, §5, §6, §7

[1] = tested on: panel of 37 human cancer cell lines; format: cell-based; details: for IC50: 4 h; for IC50 range against 37 human cancer cell lines: conclusion
Procedure: as §2, with “Tumor cells were incubated for 4 hours with 10 concentrations of” left out
as §3, §4, §5, §6, §7

U-937 cell line = format: cell-based, human; details: 4 h
Procedure: (§10) Tumor cells were plated in 96-well flat-bottom microtitration plates (Nunc, Dutscher, Brumath, France) and incubated at 37° C. for 24 hours before treatment in 190 μl of drug-free and FBS-free culture medium.
as §2, with “Tumor” for “The adherent cell lines were washed once with 200 μl FBS-free culture medium before treatment. Tumor”, “[…]” for “4×10^−10”
(§11) Three independent experiments were performed, each concentration being issued from quadruplicate. Control cells were treated with vehicle alone. At the end of treatments, the cytotoxic activity was evaluated by a MTS assay (see § 3.3 below).
as §4, §5
(§12) 4.1. IC50 Data was Determined as in Example 1

Raji cell line = format: cell-based, human; details: 4 h
Procedure: as §10
as §2, with “Tumor” for “The adherent cell lines were washed once with 200 μl FBS-free culture medium before treatment. Tumor”, “[…]” for “4×10^−10”
as §11, §4, §5, §12

MCF-7/mdr = assay: MTS cytotoxicity assay, MCF-7/mdr; format: cell-based, human; details: IC50 resistant / IC50 sensitive line; doxorubicin resistance
Procedure: as §1, §2, §3, §4, §5, §6, §7, §8, §9

[2] = tested on: panel of 10 lymphoma cell lines; format: cell-based, human; details: conclusion
Procedure: as §10
[…] compounds in ¼ dilution step with a top dose of 400 μM (range 4×10^−4 to […]), with 1% (final concentration) Triton X-100 as positive control and FBS-free culture medium as negative control. The cells (190 μl) were incubated in a 200 μl final volume of FBS-free culture medium containing test substances at 37° C. under 5% CO2.
as §11, §4, §5, §12

CCRF-CEM/VLB = assay: MTS cytotoxicity assay, CCRF-CEM/VLB; format: cell-based, human; details: IC50 resistant / IC50 sensitive line
Procedure: as §1
as §2, with “The cells (190 μl) were incubated in a 200 μl final volume of FBS-free culture medium containing test substances at 37° C. under 5% CO2.” left out
Three independent experiments were performed, each concentration being tested in quadruplicate. […] At the end of treatments, the cytotoxic activity was evaluated by a MTS assay (see § 3.3.). […]
as §5, with “Culture plates were incubated for 2 h at 37° C.” left out, “France). […]” for “France).”
as §8

RPMI 8226 cell line = format: cell-based, human; details: 4 h
Procedure: as §1, §2, §3, §4, §5, §6, §7

U-87 MG cell line = format: cell-based, human; details: 4 h
Procedure: as §1, §2, §3, §4, §5, §6, §7

Ramos cell line = format: cell-based, human; details: 4 h
Procedure: as §10
Tumor cells were incubated for 4 hours with 10 concentrations of compounds in ¼ dilution step with a top dose of 400 μM (range 4×10^−4 to […]), with 1% (final concentration) Triton X-100 as positive control and FBS-free culture medium as negative control. The cells (190 μl) were incubated in a 200 μl final volume of FBS-free culture medium containing test substances at 37° C. under 5% CO2.
as §11, §4, §5, §12

Row | IC50 (T-47D cell line) [µM] | IC50 (Hep G2 cell line) [µM] | IC50 [1] [µM] | IC50 range against 37 human cancer cell lines [1] | IC50 (U-937 cell line) [µM] | IC50 (Raji cell line) [µM] | IC50 range against 10 human lymphoma cell lines [2] | IC50 (RPMI 8226 cell line) [µM] | IC50 (U-87 MG cell line) [µM] | IC50 (Ramos cell line) [µM] | SMILES | Relative number of CD19+ and Tregs (spleen cells; after CY administration) | Relative numbers of CD4+ and CD8+ T cells in spleens and LNs (spleen cells; after CY administration) | Drop in spleen cells at low-point (spleen cells; single i.p. injection of 2 mg CY, fourth day after administration) [%] | Duration of tumor growth inhibition (A20 lymphoma) [days] | Resistance index (RI), IGROV-1/CDDP (IGROV-1/CDDP) | Resistance index (RI), HL-60/ADR (HL-60/ADR) | Resistance index (RI), MCF-7/mdr (MCF-7/mdr) | Resistance index (RI), CCRF-CEM/VLB (CCRF-CEM/VLB)
1 |  |  |  |  |  |  |  |  |  |  | O=P1(N(CCCl)CCCl)NCCCO1 (stereo not shown) [CY, cyclophosphamide] | decreased sharply | increased | 50 | 7 to 10 |  |  |  | 
2 | 4.83 ± 0.96 | 20.1 ± 4.07 | 12.1 ± 4.27 | micromolar to ten micromolar range | 5.3 ± 2.02 | 12.5 ± 3.52 | micromolar range |  |  |  | NCCCC[C@H](NC(=O)[C@H](Cc1c[nH]c2ccccc12)NC(=O)[C@H](CCCCN)NC(=O)[C@H](CCCCN)NC(=O)[C@@H](NC(=O)[C@H](Cc1c[nH]c2ccccc12)NC(=O)[C@H](CCCCN)NC(=O)[C@H](CCCCN)NC(=O)[C@@H](N)Cc1c[nH]c2ccccc12)C(c1ccccc1)c1ccccc1)C(N)=O [LTX-302, W-K-K-W-Dip-K-K-W-K-NH2] (H-WKKW[Dip]KKWK-NH2; N-terminus assumed) |  |  |  |  | 0.33 | 1.31 | 1.23 | 
3 |  |  | 9.6 ± 3.73 | micromolar to ten micromolar range |  | 16.1 ± 4.86 | micromolar range | 4.01 ± 0.39 | 18.5 ± 4.86 | 3.21 ± 2.81 | NCCCC[C@H](NC(=O)[C@H](Cc1c[nH]c2ccccc12)NC(=O)[C@H](Cc1c[nH]c2ccccc12)NC(=O)[C@H](CCCCN)NC(=O)[C@H](CCCCN)NC(=O)[C@H](Cc1c[nH]c2ccccc12)NC(=O)[C@H](Cc1ccc(-c2ccccc2)cc1)NC(=O)[C@H](CCCCN)NC(=O)[C@@H](N)CCCCN)C(N)=O [LTX-313, K-K-Bip-W-K-K-W-W-K-NH2] (H-KK[Bip]WKKWWK-NH2; N-terminus assumed) |  |  |  |  | 0.49 | 1.16 | 1.24 | 0.76
